Where a name gives a salt, the structure may show the parent alone.
Columns and labels:
[1] = system: 3WJ_0.0.0_5IB_3FAM RNA construct; test: Fluorescence quenching binding assay (FAM / Iowa Black); conditions: concentration dependent; effect at conc. >5 μM
Description: This assay will be used to test binding of compounds for RNA three way junction (such as a 38 nt construct). This is a fluorescence quenching assay utilizing FAM as fluorescence tag and Iowa Black as quencher. Tags are attached at the 3′ and 5′ end, respectively. Stable formation of MW upon compound binding would lead to quenching of the FAM fluorescence due to close proximity of the Iowa Black tag. Assay readout: FAM (485-520 nm) Fluorescence Intensity.
(§1) Assay sample buffer used: 10 mM CacoK pH 7.2, 30 mM NaCl. Buffer preparation in Dnase/Rnase Free distilled water (Gibco Life Technologies).
(§2) Dilute the RNA 1:10 (final 10 μM) in Assay Buffer.
(§3) Heat up the diluted RNA up to 90° C. for 5 min (sealed Eppendorf Tube).
(§4) Cool down the RNA probe slowly to RT.
(§5) Dilute the compounds to 800 μM in DMSO (Assay: 8 μM).
Final concentrations in the sample: 1-10 μM RNA, 8 μM compound, 1% DMSO
Pipet 25 μL Sample Solution into Greiner cat #784076, black, 384
Measure the 96 plate with the LightCycler480 (Channel: 485/520 nm).
Calibration of the expected fluorescence signal at various RNA concentrations in either CacoK or NaPO4 buffers was performed first. Experiments in buffers containing salt show distinct fluorescence quenching behavior. […]
First, two compounds (i.e. Ark000007 & Ark000008) were tested in the fluorescence quenching assay to assess concentration dependent influence on the fluorescence signal.

[2] = system: RNA3WJ_0.0.0_5IB_3FAM (3WJ_0.0.0_5IB_3FAM RNA construct); test: Thermal shift binding assay; conditions: for Melt. Temp. with cmpd / Shift melt. Temp.: RNA sequence 3WJ_0.0.0_5IB_FAM; for Melt. Temp. with cmpd: melting temperature in presence of compound; for Shift melt. Temp.: with cmpd minus without cmpd
Description: (§6) Purpose: Test binding of compounds for RNA three way junction (for example, a construct of 38 nt). Thermal shift assay based on established fluorescence quenching assay utilizing FAM as fluorescence tag and Iowa Black as quencher. Tags were attached at the 3′ and 5′ end, respectively. Stable formation of 3WJ upon compound binding would lead to quenching of the FAM fluorescence due to close proximity of the Iowa Black tag. Thermal unfolding leads to increase of fluorescence emission. Assay readout: FAM (465-510 nm) Thermal Shift.
as §1, §2, §3, §4
(§7) Dilute the compounds to 800 μM in DMSO (Assay: 8 μM). […]
(§8) Pipet 20 μL Sample Solution into Roche, Light Cycler480 Multiwell Plate96, white, REF 04729692001.
(§9) Measure the 96 plate with the LightCycler480 (Channel: 480/510 nm; Temperature: 41-91° C.).
(§10) Analyse measurement-data with the MeltingCurveGenotyping Mode.
(§11) Settings: Acquisition mode: continuous; Ramp rate: 0.1° C./sec; Acquisition: 6° C.
(§12) Curves are fitted with raw and normalized data.
(§13) Melting curves analysis show melting temperature (Tm) of ˜51° C. Range of RNA concentrations was tested and assay window was determined (conc. range of 0.5-1 μM yields best results). The choice of buffer also affected the Tm. RNA constructs were tested under different buffer conditions (especially in presence of salt) in the thermal shift assay. […] CacoK with 30 mM salt at 1 μM RNA conc. was used to assess compound effects on 3WJ stability. […] These conditions were used for screening test compounds.

[3] = system: 17CAG and 41CAG RNA (httmRNA); test: Ligand observed NMR binding assay for CAG repeat RNA; conditions: 3 μM RNA, 200 μM compound, 288 K
Description: Following the above procedure, various tool and test compounds were assayed for binding. In a first series of experiments, compounds were tested for binding to 17CAG or 41CAG (sample was 3 μM in RNA). […] However, several of the compounds did show significant changes in their signals in the presence of the two RNA target species.
Purpose: Test direct binding of compounds for httmRNA (construct with 41 CAG repeats 474 nt) and others as described below. Ligand observed NMR assay to test direct binding of fragments to RNA target (e.g. construct with 41 CAG repeats 474 nt). Single compound hits were identified for further characterization by orthogonal assay (e.g. surface plasmon resonance, SPR). Ligand observed assay was used for primary screen and deconvolution into single fragment hits. Established experiments were eventually used for group epitope mapping.
This assay tests for direct binding of compounds to httmRNA and may be adapted for other repeat RNAs. Compounds are tested in pools (i.e. pool size of 12 fragments in each sample in the primary screen and smaller pool sizes during deconvolution and eventually single compound measurements).
Sample buffer: 10 mM Tris-HCl, pH 8.0, 0.78 g [MW: 157.56 g/mol]; 75 mM KCl, 2.79 g [MW: 74.55 g/mol]; 3 mM MgCl2, 0.14 g [MW: 95.21 g/mol]; fill up to 500 mL with Millipore H2O.
Dried RNA pellet is solubilized in sample buffer 10 mM Tris-HCl pH 8.0, 75 mM KCl, 3 mM MgCl2. RNA aliquot at 13.9 μM (stock concentration) is denatured at 95° C. for 3 min and snap-cooled on ice for 3 min, and refolded at 37° C. for 30 min.
Final concentrations in the sample: 200 μM each fragment and 3 μM RNA target molecule.
Sample is placed into magnet and temperature adjusted to 288 K. Spectrometer frequency at 600 MHz is matched and tuned. Magnetic field is shimmed to homogenize magnetic field around the sample.
Sequence of experiments includes a Proton 1D experiment with a Watergate sequence for water suppression, a WaterLOGSY (WLOGSY) and a 1D Saturation transfer difference (STD) experiment to test for direct binding of the compounds to the RNA.
Details for 1D Watergate experiment: For each 1D WATERGATE spectrum a total of 8192 complex points in f1 (^1H) with 128 scans were acquired (experiment time 4 min.). The spectral width was set to 16.66 ppm.
Details WLOGSY experiment: For the WLOGSY-spectrum, a total of 1024 complex points in f1 (^1H) with 256 scans were acquired (experiment time 25 min.). The carrier frequency for ^1H was set at the water resonance (˜4.7 ppm). The spectral width was set to 16.66 ppm in the direct dimension (^1H).
Details STD experiment: For the STD-spectrum, a total of 1024 complex points in f1 (^1H) with 1024 scans were acquired (experiment time 65 min.). The carrier frequency for ^1H was set at the water resonance (˜4.7 ppm). The spectral width was set to 16.66 ppm in the direct dimension (^1H). For the on-resonance experiments saturation is set to 2.0 sec at a saturation frequency of −2500 Hz. For the off-resonance experiment saturation frequency is set at 10200 Hz.
Python scripts were used to process all recorded spectra in the assay setup, screening and deconvolution process. Spectra were analyzed for direct binding signals of the compounds. Identified single compound hits were reported.

41CAG RNA (476 nt) = test: NMR competition experiments (WaterLOGSY); assay type: binding; conditions: 100 μM compound, 2.5 μM RNA
Description: Competition experiments were also performed. Test Sample: 2.5 μM 41CAG RNA (476 nt) was combined with the following: 100 μM HP-AC008002-E01 (A); +/−200-400 μM HP-AC008001-E02 (B); and +/−200-400 μM HP-AT005003-C03 (C). ^1H 1D Watergate & WaterLOGSY spectra recorded of HP-AC008002-E01 are used as a reference.
In a further experiment, as Test Sample 2.5 μM 41CAG RNA (476 nt) was used in the presence of: 100 μM HP-AC008001-E02 (B) or 100 μM HP-AT005003-C03 (C); +/−200-400 μM HP-AC008002-E01 (A). ^1H 1D Watergate and WaterLOGSY spectra recorded single cmpds were used as a reference.
In a further experiment, as Test Sample: 2.5 μM 41CAG RNA (476 nt) was used in the presence of: 100 μM HP-AC008001-E02 (B)+/−200-400 μM HP-AT005003-C03 (C). ^1H 1D Watergate & WaterLOGSY spectra recorded of single cmpd HP-AC008001-E02 were used as a reference.

RNA3WJ_3.0.0_5IB_3FAM = test: Thermal shift binding assay; conditions: RNA:ligand ratios 1:1, 1:3
Description: as §6, §1, §2, §3, §4, §7, §8, §9, §10, §11, §12, §13

[4] = system: RNA3WJ_1.0.0_5IB_3FAM (cis 3WJ with one unpaired nucleotide); test: Thermal shift binding assay; conditions: RNA:ligand ratios 1:1, 1:3
Description: as §6, §1, §2, §3, §4, §5
Final concentrations in the sample: 1 μM RNA, 8 μM compound, 1% DMSO
as §8, §9, §10, §11, §12, §13
Compounds Ark0000013 and Ark0000014 were also tested in the thermal shift assay against three RNA 3WJ constructs, A) RNA3WJ_1.0.0_5IB_3FAM (cis 3WJ with one unpaired nucleotide); B) Split3WJ.1_up_5IB+Split3WJ.1_down_3FAM (trans 3WJ as 1:1 mix); and C) Split3WJ.2_up_5IB+Split3WJ.2_down_3FAM (trans 3WJ as 1:1 mix).

[5] = competitor HP-AC008002-E01 200-400 μM (up to 1:4)
[6] = 1 μM RNA, 8 μM compound, 10 mM CacoK pH 7.2, 30 mM NaCl

SMILES | Melt. Temp. with cmpd [2] | Shift melt. Temp. [2] | STD signal [3] | further results
C#CCCCC(=O)NC[C@H]1O[C@H](O[C@H]2[C@H](O)[C@@H](O[C@H]3O[C@H](CO)[C@@H](O)[C@H](N)[C@H]3O)[C@H](N)C[C@@H]2N)[C@H](O)[C@@H](O)[C@@H]1O [Ark000008] | 61.8 °C | +0.6 °C |  | fluorescence quenching effect (FAM fluorescence signal) [1]: Only Ark000007 showed an increase of quenching effect; effect on melting temperature (in words) ([2]; 1 μM RNA, 8 μM compound): only a very small effect
OCc1cccc(-c2cccnc2)c1 [HP-AC008002-E01] |  |  | distinct | WaterLOGSY signals in the presence of competitor (41CAG RNA (476 nt); competitor HP-AC008001-E02 or HP-AT005003-C03 200-400 μM (up to 1:4)): still observed
O=C(c1ccc(Cl)cc1)N1CCN(c2ccc([N+](=O)[O-])c3ncccc23)CC1 [CPNQ, reference compound] |  |  | distinct | 
CN(CCCN)CCCNC(=O)c1ccccc1 [Ark000039] | 60.3 °C | −1.2 °C |  | effect in the melting curves (raw and normalized data) (RNA3WJ_3.0.0_5IB_3FAM): lack of effect; effect in the melting curves (raw and normalized data) ([2]; RNA:ligand ratios 1:1, 1:3): no significant effect; effect in the melting curves (raw and normalized data) [4]: lack of effect
CC(O)CNCc1ccc(-c2ccccc2)o1 (stereo not shown) [HP-AT005003-C03] |  |  | distinct | WaterLOGSY signals in the presence of competitor (41CAG RNA (476 nt); [5]): still observed
Cc1nn(-c2ccccc2)nc1CN [HP-AC008001-E02] |  |  | distinct | WaterLOGSY signals in the presence of competitor (41CAG RNA (476 nt); [5]): still observed; WaterLOGSY signals in the presence of competitor (41CAG RNA (476 nt); competitor HP-AT005003-C03 200-400 μM (up to 1:4)): still observed
CN(c1ccc(-c2ccc(-c3cn[nH]c3)cc2O)nn1)C1CC(C)(C)NC(C)(C)C1 [ARK000011] | 60.3 °C | −1.4 °C |  | 
[N-]=[N+]=NC[C@H]1O[C@H](O[C@@H]2[C@@H](O)[C@H](O[C@H]3O[C@H](CN)[C@@H](O)[C@H](O)[C@H]3O)[C@@H](N)C[C@H]2N)[C@H](O)[C@@H](N)[C@@H]1O [Ark000007, 6″-Azido-Kanamycin a Hydrochloride Salt] | 65.6 °C | +4.4 °C |  | fluorescence quenching effect (FAM fluorescence signal) [1]: increase of quenching effect; Melting temp + cmpd [2, 6]: 65.6 °C; Temp. Shift [2, 6]: ~5 °C
NCc1ccc2ccccc2n1 [HP-AC008004-C07] |  |  | weak | 

Source: patent publication US20220402883A1, “COMPOUNDS AND METHODS FOR MODULATING RNA FUNCTION” (Arrakis Therapeutics, Inc., priority 2016, published 2022)
